In this test the test system is LPS-induced TNF-α expression. Put plainly: LPS-induced TNF-α expression in murine peritoneal macrophages (ELISA). Format: cell-based. The settings on record: Mus musculus, Peritoneal macrophage. The method, then: C57BL/6 mice were injected intraperitoneally with 3% thioglycollate, and their peritoneal macrophages were collected 72 h later. Macrophages were cultured in DMEM supplemented with 10% FBS and 50 μg/mL gentamicin at 37° C. in a humidified atmosphere of 5% CO2. […] Cell lysates were subjected to SDS-PAGE for detection of COX2 and iNOS expression. The presence of nitrite (a metabolite of NO) in the culture medium was analyzed by the Griess assay (Sigma-Aldrich), as previously described (16).

The mark [1] stands for this setting: 2 h, read-out: Inhibition of 2 h-TNF-α (%).
Where [2] appears, read: 4 h, read-out: Inhibition of 4 h-TNF-α (%).

Where two headings read alike, the source gives them in different places.

In the case of `C=C(CC[C@@H](C)[C@H]1CC[C@H]2C3=C(C(=O)C[C@]12C)[C@@]1(C)CC[C@@H](O)[C@@H](C)C1C[C@@H]3O)C(C)C(=O)O` (stereo partly shown) [No. 13, Camphoratin B], the inhibition at 10 µM was 40.7% under setting [1] and 87% under setting [2].

In the case of `C=C(CC[C@@H](C)[C@H]1CCC2C3=C(C(=O)C[C@@]21C)[C@@]1(C)CCC(=O)[C@@H](C)C1C[C@H]3O)C(C)C(=O)O` (stereo partly shown) [No. 17, Camphoratin G], the inhibition at 10 µM under setting [1] is 68.8% and the inhibition at 10 µM under setting [2] came out at 22.5%.

For `C=C(CC[C@@H](C)[C@H]1CCC2C3=C(C(=O)C[C@@]21C)[C@@]1(C)CC[C@@H](O)[C@@H](C)C1CC3=O)C(C)C(=O)OC` (stereo partly shown) [No. 15, Camphoratin E], the inhibition at 10 µM is, setting by setting: under setting [1], 78%; under setting [2], 89.4%.

Turning to `C=C(CC[C@@H](C)[C@H]1CCC2C3=C(C(=O)C[C@@]21C)[C@@]1(C)CC[C@@H](O)[C@@H](C)C1CC3=O)C(C)C(=O)O` (stereo partly shown) [No. 3, Zhankuic acid B], the inhibition at 10 µM runs as follows: under setting [1], 68.9%; under setting [2], 88.6%.

`C=C(CC[C@@H](C)[C@H]1CC[C@@]2(O)C3=C(C(=O)C[C@]12C)[C@@]1(C)CCC(=O)[C@@H](C)C1C[C@@H]3O)C(C)C(=O)O` (stereo partly shown) [No. 14, Camphoratin D]: the inhibition at 10 µM turned out to be 65.8% under setting [1] and 81.7% under setting [2].

Take `C=C(CC[C@@H](C)[C@H]1CC[C@H]2C3=C(C(=O)C[C@]12C)[C@@]1(C)CCC(=O)[C@@H](C)[C@@H]1CC3)C(C)C(=O)OC` (stereo partly drawn) [No. 26, Methyl-4α-methylergost-8,24(28)-diene-3,11-dion-26-oate]: the inhibition at 10 µM is, setting by setting: under setting [1], 49.3%; under setting [2], under 0%.

Regarding `C=C(CC[C@@H](C)[C@H]1CC[C@H]2C3=C(C(=O)[C@H](O)[C@]12C)[C@@]1(C)CC[C@@H](O)[C@@H](C)[C@@H]1CC3=O)C(C)C(=O)OC` (stereo partly shown) [No. 27, Methyl antcinate H], the inhibition at 10 µM under setting [1] was found to be 79.8% and the inhibition at 10 µM under setting [2] is 91.5%.

Consider `CC(C)[C@@H](C)/C=C/[C@@H](C)[C@H]1CC[C@@H]2[C@]1(C)CC[C@H]1[C@]23C=C[C@]2(C[C@@H](O)CC[C@]12C)OO3` [No. 25, Ergosterol peroxide], for which the inhibition at 10 µM under setting [1] is under 0% and the inhibition at 10 µM under setting [2] is under 0%.

On to `CC(=O)CC[C@@H](C)[C@H]1CCC2C3=C(C(=O)C[C@@]21C)[C@@]1(C)CCC(=O)[C@@H](C)C1CC3=O` (stereo partly shown) [No. 21, Camphoratin L], for which the inhibition at 10 µM runs as follows: under setting [1], 73.9%; under setting [2], 30.6%.

On to `C=C(CC[C@@H](C)[C@H]1CC[C@H]2C3=C(C(=O)[C@H](O)[C@]12C)[C@@]1(C)CC[C@@H](O)[C@@H](C)C1C[C@@H]3O)C(C)C(=O)O` (stereo partly shown) [No. 12, Camphoratin A], for which the inhibition at 10 µM is, setting by setting: under setting [1], 22.8%; under setting [2], 29.9%.

As for `C=C(CC[C@@H](C)[C@H]1CC[C@@H]2C3=C(C(=O)C[C@@]21C)[C@@]1(C)CCC(=O)[C@@H](C)C1CC3)C(C)C(=O)OC` (stereo partly shown) [No. 19, Camphoratin J], the inhibition at 10 µM reads like this: under setting [1], 73.4%; under setting [2], 90.2%.

For the molecule `C=C(CC[C@@H](C)[C@H]1CCC2C3=C(C(=O)C[C@@]21C)[C@@]1(C)CCC(=O)[C@@H](C)C1CC3)C(C)C(=O)OC` (stereo partly shown) [No. 8, Antcin A methyl ester], the inhibition at 10 µM by setting is: under setting [1], 19.4%; under setting [2], 85.2%.

Regarding `C=C(CC[C@@H](C)[C@H]1CC[C@H]2C3=C(C(=O)[C@H](O)[C@]12C)[C@@]1(C)CC[C@@H](OC=O)[C@@H](C)[C@@H]1CC3)C(C)C(=O)O` (stereo partly shown) [No. 11, Antcin M 3-O-formate], the inhibition at 10 µM under setting [1] is under 0% and the inhibition at 10 µM under setting [2] is 88.3%.

Regarding `C=C(CC[C@@H](C)[C@H]1CCC2C3=C(C(=O)C[C@@]21C)[C@@]1(C)CCC(=O)[C@@H](C)C1CC3=O)C(C)C(=O)OCC` (stereo partly shown) [No. 6, Zhankuic acid D], the inhibition at 10 µM is 67.1% under setting [1] and 54.8% under setting [2].

In the case of `C=C(CC[C@@H](C)[C@H]1CC[C@H]2C3=C(C(=O)C[C@]12C)[C@@]1(C)CCC(=O)[C@@H](C)[C@@H]1CC3=O)C(C)C(=O)OC` (stereo partly shown) [No. 2, Zhankuic acid A methyl ester], the inhibition at 10 µM reads like this: under setting [1], 51.6%; under setting [2], 80.3%.

Take `C=C(CC[C@@H](C)[C@H]1CC[C@H]2C3=C(C(=O)[C@H](O)[C@]12C)[C@@]1(C)CC[C@@H](OC=O)[C@@H](C)[C@@H]1CC3=O)C(C)C(=O)O` (stereo partly shown) [No. 5, Zhankuic acid C 3-O-formate]: the inhibition at 10 µM by setting is: under setting [1], 1.62%; under setting [2], 45.3%.

Consider `C=C(CC[C@@H](C)[C@H]1CCC2C3=C(C(=O)C[C@@]21C)[C@@]1(C)CCC(=O)[C@@H](C)C1C[C@@H]3O)C(C)C(=O)O` (stereo partly shown) [No. 9, Antcin C], for which the inhibition at 10 µM under setting [1] worked out at 43.6% and the inhibition at 10 µM under setting [2] was 43.1%.

Consider `C=C(CCC(C)C1CCC2C3=C(C(=O)C[C@@]21C)[C@@]1(C)CCC(=O)[C@@H](C)C1CC3=O)C(C)C(=O)O` (stereo in doubt) [No. 1, Zhankuic acid A], for which the inhibition at 10 µM worked out at 42.4% under setting [1] and 85.6% under setting [2].

With `C=C(CC[C@@H](C)[C@H]1CC[C@H]2C3=C(C(=O)C[C@]12C)[C@@]1(C)CC[C@@H](O)[C@](C)(O)[C@@H]1C[C@@H]3O)C(C)C(=O)O` (stereo partly shown) [No. 10, Antcin K], the inhibition at 10 µM was 49.4% under setting [1] and 88.5% under setting [2].

For `C=C(CC[C@@H](C)[C@H]1CCC2C3=C(C(=O)C[C@@]21C)[C@@]1(C)CCC(=O)[C@@H](C)C1C[C@@H]3O)C(C)C(=O)OC` (stereo partly shown) [No. 16, Camphoratin F], the inhibition at 10 µM is, setting by setting: under setting [1], 38.2%; under setting [2], 80.2%.

`C=C(CC[C@@H](C)[C@H]1CC[C@H]2C3=C(C(=O)C[C@]12C)[C@@]1(C)CCC(=O)[C@@H](C)[C@@H]1CC3)C(C)C(=O)O` (stereo partly shown) [No. 7, Antcin A]: the inhibition at 10 µM is, setting by setting: under setting [1], 40.6%; under setting [2], 90.7%.

As to `C=C(CC[C@@H](C)[C@H]1CCC2C3=C(C(=O)[C@H](O)[C@@]21C)[C@@]1(C)CCC(=O)[C@@H](C)C1CC3=O)C(C)C(=O)OC` (stereo partly shown) [No. 22, Camphoratin N], the inhibition at 10 µM was 58.3% under setting [1] and 89% under setting [2].

Take `C=C(CC[C@@H](C)[C@H]1CC[C@H]2C3=C(C(=O)[C@H](O)[C@]12C)[C@@]1(C)CC[C@@H](O)[C@@H](C)[C@@H]1CC3=O)C(C)C(=O)O` (stereo partly shown) [No. 4, Zhankuic acid C]: the inhibition at 10 µM reads like this: under setting [1], 67.5%; under setting [2], 88.8%.

In general, inhibition refers to the percentage by which the read-out fell short of the control.

(Values after patent US20150374718A1, “Zhankuic Acid A and Analogs thereof and Their Use as an Anti-Inflammatory Agent” (National Cheng Kung University, priority 2014, published 2015).)
